Data published in US5519042A, “Method of treating hyperproliferative vascular disease” (priority 1994, dated 1996).

Test system: injured carotid arteries
Assay: Effect on intimal thickening in injured carotid arteries (balloon catheter injury, morphometry)
Assay type: in vivo, male Sprague-Dawley (SD) rats
Conditions: for Intima Percent (±S.E.): mean ± standard error, untreated injured control 46.06 ± 16.36
Experimental: The effect of N-(4-trifluoromethylphenyl)-5-methylisoxazole-carboxamide (compound I) on hyperproliferative vascular disease was established in an in vivo standard pharmacological test procedure that emulates the hyperproliferative effects observed in mammals that are undergoing intimal smooth muscle proliferation and are therefore developing restenosis. Cyclosporin A was also evaluated in these test procedure for the purpose of comparison.
Compound 1 was also evaluated in an in vivo standard pharmacological test procedure that emulates the vascular injury suffered and restenosis that develops following percutaneous transluminal coronary angioplasty in humans.
Intimal smooth muscle proliferation was produced by balloon catheter injury to the left carotid artery of groups of 6, male Sprague-Dawley (SD) rats. […] A balloon catheter (2 French Fogarty, Edwards Laboratories, Santa Anna, Calif.) was passed through the external carotid artery into the aorta. The balloon was then inflated with an amount of water sufficient to distend the common carotid artery and was then pulled back to the external carotid artery. The inflation and pull back were repeated three times. This procedure leads to complete denudation of the endothelium throughout the common carotid artery, and also some injury typically occurs to the medial smooth muscle cells.
During a 17-days period (3 days before operation to 13 days after operation), these rats were divided into 2 groups of 6 animals and treated daily with compound 1 (20 mg/kg/day, intraperitoneal (i.p.)) or cyclosporin A (3 mg/kg/day; i.p.).
An injured group not treated with any drug was used as an injured control to establish the amount of intimal thickening in the absence of treatment. The right carotid was used as an uninjured control in all groups.
After the 14 day post-operative period, the rats were sacrificed, the carotids removed. The mean areas of the intima, media and total blood vessel wall were measured by morphometry. The injured artery was also examined using histopathologic assays. Results are presented as an intima percent, expressed as follows: [formula]

Cc1oncc1C(=O)Nc1ccc(C(F)(F)F)cc1 [Compound 1, N-(4-trifluoromethylphenyl)-5-methylisoxazole-4-carboxamide]
decrease in the mean percentage intimal thickening compared with the untreated injured control group (20 mg/kg/day i.p.): 83%
Intima Percent (±S.E.) (20 mg/kg/day i.p., 3 days before to 13 days after operation): 7.88 ± 7.88%

Cyclosporin A
reduction in intimal thickening (in words) (3 mg/kg/day i.p.): failed to produce any meaningful reduction in intimal thickening
Intima Percent (±S.E.) (3 mg/kg/day i.p., 14 days): 39.39 ± 26.06%
